This is an account of results in patent US5430042A, “Dialkoxy-pyridinyl-benzimidazole derivatives, process for their preparation and their pharmaceutical use” (priority 1990, dated 1995).

For series [1], the system named is uptake of ^125 I in the thyroid gland. Kind of series: Effect on the Accumulation of ^125 I in the Thyroid Gland. In kind it is in vivo, rat (Sprague-Dawley). Conditions: oral gavage, male rat, 4 h after ^125 I. The protocol:
The effect of a compound within the invention of the formula I on the uptake of iodine into the thyroid gland is measured as an effect on the accumulation of ^125 I in the thyroid gland.
The accumulation of ^125 I in the thyroid gland was studied in male, Sprague-Dawley rats which were deprived of food for 24 hours before the test. The experimental protocol of Searle, C. E. et al. (Biochem J 1950, 47:77-81) was followed.
Test substances suspended in 0.5% buffered (pH 9) methocel, were administered by oral gavage in a volume of 5 ml/kg body weight. After 1 hour, ^125 I (300 kBqkg, 3 ml/kg) was administered by intraperitoneal injection. Four hours after ^125 I-administration, the animals were killed by CO2 -asphyxiation and bled. The thyroid gland together with a piece of the trachea was dissected out and placed in a small test tube for the assay of radioactivity in a gamma counter (LKB-Wallac model 1282 Compugamma). Percentage inhibition was calculated according to the formula 100 (1-T/P), where T and P is the mean radioactivety of thyroid glands from animals treated with test agent and placebo (buffered methocel), respectively. The statistical significane for a difference between test agent- and placebo-treated animals was assessed with the Mann-Whitney U-test (two-tailed). P<0.05 was accepted as significant.

Series [2] in a line: Chemical Stability at pH 7 in aqueous buffer. As to conditions: pH 7, 37° C., low concentration, read-out: Chemical stability at pH 7 half-life (t 1/2). In kind it is physicochemical. The protocol: The chemical stability of a compound of the invention is followed kinetically at low cencentration at 37° C. in aqueous buffer solution at different pH values. The results in Table 4 show the half life (t 1/2) at pH 7, that is the time period after which half the amount of the original compound remains unchanged.

For series [3], the system named is gastric acid secretion. Kind of series: Inhibition of Gastric Acid Secretion in the Conscious Dog, iv. In kind it is in vivo, dog (Harrier). As to conditions: Canis lupus familiaris, histamine-stimulated, acid output 2 h after dosing, read-out: Inhibition of acid secretion iv administration ED50, Dog. The protocol: (§1) The potency for inhibition of acid secretion is measured in the dog, intravenously (iv) and in the female rat, intravenously (iv).
Harrier dogs of either sex were used. They were equipped with a duodenal fistula for the administration of test compounds or vehicle and a Heidenhain-pouch for the collection of gastric secretions.
Before secretory tests the animals were fasted for about 18 h but water was freely allowed. Gastric acid secretion was stimulated by a 4 h infusion of histamine dihydrochloride (12 ml/h) at a dose producing about 80% of the individual maximal secretory response, and gastric juice collected in consecutive 30-min fractions. Test substance or vehicle was given iv 1 h after starting the histamine infusion, in a volume of 0.5 ml/kg body weight. The acidity of the gastric juice samples were determined by titration to pH 7.0, and the acid output calculated. The acid output in the collection periods after administration of test substance or vehicle were expressed as fractional responses, setting the acid output in the fraction preceding administration to 1.0. Percentage inhibition was calculated from fractional responses elicited by test compound and vehicle. ED50 -values were obtained by graphical interpolation on log dose--response curves, or estimated from single-dose experiments under the assumption of the same slope of the dose-response curve for all test compounds. […]

The test system of series [4] is gastric acid secretion. Kind of series: Inhibition of Gastric Acid Secretion in the Conscious Female Rat, iv. In kind it is in vivo, rat (Sprague-Dawley). The protocol:
as §1
Female rats of the Sprague-Dawley strain are used. They are equipped with cannulated fistulae in the stomach (lumen) for collection of gastric secretions. A fourteen days recovery period after surgery is allowed before testing is commenced.
Before secretory tests, the animals are deprived of food but not water for 20 h. The stomach is repeatedly washed through the gastric cannula, and 6 ml of Ringer-Glucose given s.c. Acid secretion is stimulated with infusion during 3.5 h (1.2 ml/h, s.c.) of pentagastrin and carbachol (20 and 110 nmol/kg h, respectively), during which time gastric secretions are collected in 30-min fractions. Test substances or vehicle are given iv at 90 min after starting the stimulation, in a volume of 1 ml/kg. Gastric juice samples are titrated to pH 7.0 with NaOH, 0.1 mol/L, and acid output is calculated as the product of titrant volume and concentration. Further calculations are based on group mean responses from 4-7 rats. The acid output during the periods after administration of test substances or vehicle are expressed as fractional responses, setting the acid output in the 30-min period preceding administration to 1.0. Percentage inhibition is calculated from the fractional responses elicited by test compound and vehicle. […]

Series [5] in a line: Bioavailability in the Male Rat (id vs iv AUC). Conditions: blood, 4 umol/kg, intraduodenal vs iv, 4 μmol/kg, read-out: Bioavailability F %, Rat. In kind it is in vivo, rat (Sprague-Dawley). The protocol: Biovailability is assessed by calculating the quotient between the area under plasma concentration (AUC) curve following intreduodenal (id) administration and intravenous (iv) administration from the rat.
Male adult rats of the Sprague-Dawley strain were used. One day, prior to the experiments, all rats were prepared by cannulation of the left carotid artery under anaesthesia. The rats used for the intravenous experiments, were also cannulated in the jugular vein. (Ref. V. Popovic and P. Popovic, J Appl Physiol 1960;15,727-728). The rats used for the intraduodenal experiments, were also cannulated in the upper part of the duodenum. The cannulas were exteriorized at the nape of the neck. The rats were housed individually after surgery and were deprived of food, but not water, before administration of the test substances. The same dose (4 μmol/kg) were given iv and id as a bolus for about one minute (2 ml/kg).
Blood samples (0.1-0.4 g) were drawn repeatedly from the carotid artery at intervals up to 4 hours after given dose. […]
The area under the blood concentration vs time curve, AUC, was determined by the linear trapezoidal rule and extrapolated to infinity by dividing the last determined blood concentration by the elimination rate constant in the terminal phase.
The systemic bioavailability (F %) following intraduodenal administration was calculated as [formula]

As a reminder, the bioavailability is the share of a dose that reaches the circulation, judged against a reference dose that is usually intravenous. On to `COc1ccnc(C[S+]([O-])c2nc3cc(C(C)=O)c(C)cc3[nH]2)c1OC` (centres unmarked) [Example 4, 5-Acetyl-6-methyl-2-[[(3,4-dimethoxy-2-pyridinyl)methyl]sulfinyl]-1H-benzimidazole], for which the “Percent inhibition of 400 μmol/kg on the uptake of ^125 I in the thyroid gland” value (“Percent inhibition of 400 μmol/kg” for short) in series [1] is -7%. Further, the half-life in series [2] worked out at 7.83 h. In addition, the ED50 in the series on gastric acid secretion [3] turned out to be 0.74 µmol/kg; with gastric acid secretion [4] (2 h, iv, pentagastrin and carbachol stimulated, second hour after drug, read-out: Inhibition of acid secretion iv administration ED50, Rat), 0.9 µmol/kg. Moreover, the bioavailability in series [5] was above 100%.
As to `CCOC(=O)c1ccc2[nH]c([S+]([O-])Cc3nccc(OC)c3OC)nc2c1` (centres unmarked) [Example 5, 5-Carbethoxy-2-[[(3,4-dimethoxy-2pyridinyl)methyl]sulfinyl]-1H-benzimidazole], the “Percent inhibition of 400 μmol/kg” value in series [1] is reported as -6%. Besides, the half-life in series [2] was 4.5 h.
In the case of `CC(=O)c1cc2nc([S+]([O-])Cc3nccc4c3OCCO4)[nH]c2cc1C` (centres unmarked) [Example 2, 5-Acetyl-6-methyl-2-[[(3,4-ethylendioxy-2-pyridinyl)methyl]sulfinyl]-1H-benzimidazole], the “inhibition of acid secretion, Rat” value in the series on gastric acid secretion [4] (1 μmol/kg iv) worked out at 14%.
On to `COC(=O)c1cc2nc([S+]([O-])Cc3nccc(OC)c3OC)[nH]c2cc1C` (centres unmarked) [Example 3, 5-Carbomethoxy-6-methyl-2-[[(3,4-dimethoxy-2-pyridinyl)methyl]sulfinyl]-1H-benzimidazole], for which the “Percent inhibition of 400 μmol/kg” value in series [1] is given as 0%. In series [2], the half-life came out at 8 h. Further, the ED50 in the series with gastric acid secretion [3] stood at 0.5 µmol/kg.
